Literature values, collected in patent US20040147490A1, “2-Amino-propanol derivatives” (priority 2001, published 2004).

Details: comparison substance

For `CCCCCCCCCCCCC/C=C/[C@@H](O)[C@@H](N)COP(=O)(O)O` [sphingosine-1 phosphate], the negative chronotropic effects is given as “negative chronotropic effects”.
